Reference: patent US7326422B2, “Dissolvable oxides for biological applications” (DelSiTech Oy, priority 1996, dated 2008)
Where a name gives a salt, the structure may show the parent alone. One block for each compound: values may come before it.

What was measured:
[1] = during the first day; crushed silica xerogel particles of 500-700 μm; cited from earlier work
[2] = In vitro dissolution test, USP XXII dissolution apparatus II (paddle method), SBF pH 7.4 with 0.5% sodium dodecyl sulphate, 37° C.; format: physicochemical; conditions: for Dissolution of toremifene citrate: b: silica xerogel with PEG 4,600; for Release of toremifene citrate: SLOPE: silica xerogel; for release of toremifene citrate: linear, zero-order
Procedure: Simulated body fluid (SBF, pH 7.4) containing 0.5% […] sodium dodecyl sulphate was used as dissolution medium. SBF was prepared by dissolving reagent grade NaCl (136.8 mM), NaHCO3 (4.2 mM), KCl (3.0 mM), K2HPO4×3H2O (1.0 mM), MgCl2×6H2O (1.5 mM), CaCl2×2H2O […] and Na2SO4 (0.5 mM) in distilled water. They were buffered at pH 7.4 with tris-(hydroxymethyl)aminomethane (50 mM) and hydrochloric acid.
The volume of dissolution medium was 250 ml. Agitation intensity was 50 rpm and temperature was 37° C. […]

[3] = Dissolution of spray dried or crushed gel particles in 250 ml SBF, USP XXII dissolution apparatus II (paddle method); format: physicochemical; conditions: for toremifene citrate released: after 30 hours; for slope (%/h^1/2): microspheres with 11 w-% toremifene citrate
Procedure: The solution for spray drying purpose was prepared with a mole ratio of TEOS:H2O:HCl=1.0:14.2:0.003. […] Before spray drying the pH of the sol was adjusted to pH 2.1 with hydrochloric acid. Silica sol was spray dried immediately or after 65 hours aging at room temperature. The spray drying conditions were as described in Example 6. […] About 42 mg of gel particles were placed in 250 ml of simulated body fluid (SBF) at 37° C. and pH 7.4.

SMILES: CN[C@H](CC(C)C)C(=O)N[C@H]1C(=O)N[C@@H](CC(N)=O)C(=O)N[C@H]2C(=O)N[C@H]3C(=O)N[C@H](C(=O)N[C@H](C(=O)O)c4cc(O)cc(O)c4-c4cc3ccc4O)[C@H](O)c3ccc(c(Cl)c3)Oc3cc2cc(c3O[C@@H]2O[C@H](CO)[C@@H](O)[C@H](O)[C@H]2O[C@H]2C[C@](C)(N)[C@H](O)[C@H](C)O2)Oc2ccc(cc2Cl)[C@H]1O [vancomycin]
incorporated vancomycin released [1]: about 90%

release faster from 28 days aged silica xerogels than from unaged ([2]; silica xerogel monolith with PEG 4,600): about 30%
Dissolution of toremifene citrate: b ([2]; aging 0 days, dried at 11.4 RH-%): b = 0.46%/mg %/mg implant/h^1/2
Dissolution of toremifene citrate: b ([2]; aging 0 days, dried at 48.4 RH-%): b = 0.53 %/mg implant/h^1/2
Dissolution of toremifene citrate: b ([2]; aging 0 days, dried at 74.7 RH-%): b = 0.46 %/mg implant/h^1/2
Dissolution of toremifene citrate: b ([2]; aging 7 days, dried at 11.4 RH-%): b = 0.59 %/mg implant/h^1/2
Dissolution of toremifene citrate: b ([2]; aging 7 days, dried at 48.4 RH-%): b = 0.52 %/mg implant/h^1/2
Dissolution of toremifene citrate: b ([2]; aging 7 days, dried at 74.7 RH-%): b = 0.06%/mg %/mg implant/h
Dissolution of toremifene citrate: b ([2]; aging 28 days, dried at 11.4 RH-%): b = 0.67 %/mg implant/h^1/2
Dissolution of toremifene citrate: b ([2]; aging 28 days, dried at 48.4 RH-%): b = 0.74 %/mg implant/h^1/2
Release of toremifene citrate: SLOPE ([2]; H2O/TEOS = 6:1, PEG 4600): 0.094%/ %/mg × h
Release of toremifene citrate: SLOPE ([2]; H2O/TEOS = 6:1, PEG 10000): 0.922%/mg %/mg IMPLANT × h^1/2
Release of toremifene citrate: SLOPE ([2]; H2O/TEOS = 6:1, without PEG): 0.657%/mg %/mg IMPLANT × h^1/2
Release of toremifene citrate: SLOPE ([2]; H2O/TEOS = 14:1, PEG 4600): 0.052 %/mg IMPLANT × h
Release of toremifene citrate: SLOPE ([2]; H2O/TEOS = 14:1, PEG 10000): 0.061 %/mg IMPLANT × h
Release of toremifene citrate: SLOPE ([2]; H2O/TEOS = 14:1, without PEG): 0.085 %/mg IMPLANT × h
release rate (linear) ([2]; silica xerogels containing PEG 10 000): 0.1 %/mg implant/h
release rate (linear) ([2]; silica xerogels containing PEG 4600): 0.13 %/mg implant/h
release rate (linear) ([2]; silica-xerogels without polyethylene glycol): 0.16 %/mg implant/h
release of toremifene citrate ([2]; sintered silica gel (120° C.) containing 11.5 wt-% drug): 0.05 %/mg implant/h
release of toremifene citrate ([2]; sintered silica gel (120° C.) containing 34.4 wt-% drug): 0.11 %/mg implant/h
release rate (linear) ([2]; spray dried particles (60-200 μm) containing 10.2 w-% toremifene citrate, two months from preparation): 0.68 w-% per hour
toremifene citrate released ([3]; microspheres (<50 μm) spray dried at pH 3.8, square root of time kinetics): 80 w-%
toremifene citrate released ([3]; microspheres from sol aged 65 hours, pH 2): 63.1 w-%
toremifene citrate released ([3]; microspheres from unaged sol, pH 2): 75.2 w-%
dissolution rate (square root of time kinetics) ([3]; crushed silica xerogel granules about 4-50 μm, PEG 4.600): 8.1 %/h^1/2
cum released toremifene (%) after 30 h ([3]; microspheres aged for 0 h (pH 2)): 75.2%
cum released toremifene (%) after 30 h ([3]; microspheres aged for 65 h (pH 2)): 63.1%
slope (%/h^1/2) ([3]; aged for 0 h (pH 2)): 12.2 %/h^1/2
slope (%/h^1/2) ([3]; aged for 65 h (pH 2)): 9.79 %/h^1/2
release slower from aged than from unaged microspheres ([3]; sol aged 65 h vs 0 h, pH 2): about 20%
SMILES: CN(C)CCOc1ccc(/C(=C(/CCCl)c2ccccc2)c2ccccc2)cc1 [toremifene citrate]
